Series [1] concerns human gastric cancer adenocarcinoma cell line. Conditions: cited from earlier work.
The subject of series [2] is human central nervous system tumor cell line (XF498). In words: SRB cytotoxicity evaluation, XF498. It is filed as cell-based. Conditions: for IC50: SRB, XF498. As to the method: (§1) To verify the cytotoxic effect of the compounds prepared in Examples above, cytotoxicity was induced in cancer cells and SRB (Sulforhodamin B dye-staining) evaluation was conducted.
(§2) Each compound prepared in Examples was dissolved in 10% DMSO. 10 μL of the solution and 190 μL of cell suspension (5×10^4 cells/ml) were placed in standard 96-well plate and cultured in 5% CO2 condition at 37° C. for 3 days. 190 μL of the same cell suspension was placed in at least 16 wells, followed by cultivation at 37° C. for 30 minutes, and used as zero-day control. After cultivation for a predetermined period of time, cells were fixed by adding 50 μL of 50% trichloroacetic acid in each well, followed by incubation at 4° C. for 30 minutes. Cells were washed with water 5 times, dried at room temperature, and stained by adding 100 μL of 1% acetic acid solution containing […] in each well, and then washed with 1% acetic acid after 1 hour and dried in air. 200 μL of 10 mM Tris-base was added in each well and stirred well, thereby dissolving the bound staining agent, followed by measurement of absorbance at 515 nm by using ELISA reader. Viability was determined based on the difference between the zero-day control group and 10% DMSO-treated control group. Viability about ellipticin and doxorubicin were also measured for comparison.
(§3) Meanwhile, SRB evaluation was also conducted for human lung cancer cell line (A549), human ovarian cancer cell line (SK-OV-3), human melanoma cell line (SK-MEL-2), human central nervous system tumor cell line (XF498), and human colon cancer cell line (HCT15), and the results are shown in TABLE 2.

The test system of series [3] is human fibrosarcoma cell line (HT1080). In words: SRB cytotoxicity evaluation, HT1080. The series is classed as cell-based. The following applies: for IC50: SRB, 3 days culture, HT1080. The protocol: as §1
(§4) Cancer cell lines used herein (NCI, US) was human gastric cancer cell line (SNU-638), human colon cancer cell line (Col2), human fibrosarcoma cell line (HT1080), and human myelogenous leukemia cell line (HL-60).
as §2

Series [4] has as its system human gastric cancer cell line (SNU-638). In words: SRB cytotoxicity evaluation, SNU-638. The series is classed as cell-based. Conditions: 3 days culture. The protocol:
as §1, §4, §2

Series [5] concerns human lung cancer cell line (A549). In words: SRB cytotoxicity evaluation, A549. The series is classed as cell-based. Conditions: for IC50: SRB, A549. The protocol:
as §1, §2, §3

Series [6] deals with human colon cancer cell line (Col2). The experiment in a line: SRB cytotoxicity evaluation, Col2. It is filed as cell-based. Conditions: 3 days culture. As to the method: as §1, §4, §2
The subject of series [7] is human ovarian cancer cell line (SK-OV-3). The experiment in a line: SRB cytotoxicity evaluation, SK-OV-3. It is filed as cell-based. The following applies: for IC50: SRB, SK-OV-3. As to the method:
as §1, §2, §3

Series [8] relates to human myelogenous leukemia cell line (HL-60). In words: SRB cytotoxicity evaluation, HL-60. The series is classed as cell-based. Conditions: 3 days culture. As to the method:
as §1, §4, §2

Series [9] relates to human melanoma cell line (SK-MEL-2). The experiment in a line: SRB cytotoxicity evaluation, SK-MEL-2. The series is classed as cell-based. The following applies: for IC50: SRB, SK-MEL-2. As to the method: as §1, §2, §3
Series [10] deals with human colon cancer cell line (HCT15). In words: SRB cytotoxicity evaluation, HCT15. It is filed as cell-based. The protocol:
as §1, §2, §3

[11] abbreviates: comparison among tested compounds, in words.

Molecules are shown by their SMILES. Read-outs that look alike come from different tables or passages of the source.

The values that follow come from patent US7160884B2, “1-/2-substituted-1H/-2H-[1,2,3]triazolo[4,5-g]phthalazine-4,9-dione compound, process for the preparation thereof and pharmaceutical composition comprising the same” (EWHA University-Industry Collaboration Foundation, priority 2005, dated 2007).

For orientation: IC50 means the concentration at which inhibition is half-maximal. A low value points to greater potency.

Consider `Cc1nc2c(n1-c1ccc(Br)cc1)C(=O)c1nccnc1C2=O` [2-methyl-4,9-dehydro-1-(4-bromophenyl)-1H-imidazo[4,5-g]-quinoxaline-4,9-dione], for which the “cytotoxicity compared with cisplatin or doxorubicin” value in series [1] is “higher than that of cisplatin or doxorubicin”.
In the case of `COc1cccc2c1C(=O)c1c(O)c3c(c(O)c1C2=O)C[C@@](O)(C(=O)CO)C[C@@H]3O[C@H]1C[C@H](N)[C@H](O)[C@H](C)O1` [Doxorubicin, reference compound], the IC50 was found to be 0.044 µM in series [2] (Homo sapiens); 0.022 µM in [3] (Homo sapiens, HT-1080, 72 h); 0.052 µM in [4] (Homo sapiens, 72 h); 0.022 µM in series [5] (Homo sapiens); 0.098 µM in series [6] (Homo sapiens, 72 h); 0.041 µM in series [7] (Homo sapiens). For the same compound, the IC50 in [8] (Homo sapiens, 72 h) was found to be 0.044 µM; in series [9] (Homo sapiens) it was 0.019 µM; in [10] (Homo sapiens, HCT-15), 0.251 µM.
As to `Cc1c2ccncc2c(C)c2c1[nH]c1ccccc12` [Ellipticin, reference compound], the IC50 in [2] is 3.64 µM; in [3], 1.93 µM; in [4], 2.99 µM; in [5], 1.32 µM; in series [6], 2.62 µM; in series [7], 1.47 µM. In addition, the IC50 in series [8] is 3.37 µM; in [9], 2.41 µM; in series [10] it was 3.72 µM.
Turning to `COc1ccc(Cn2nnc3c2C(=O)c2cnncc2C3=O)cc1` [Example 1a, 1-(4-methoxybenzyl)-1H-[1,2,3]triazolo[4,5-g]phthalazin-4,9-dione], the IC50 in series [2] (Homo sapiens) was 0.118 µM; in series [3] (Homo sapiens, HT-1080, 72 h) it was 0.33 µM; in series [4] (Homo sapiens, 72 h) it was 0.257 µM; in [5] (Homo sapiens), 0.054 µM; in series [6] (Homo sapiens, 72 h), 2.38 µM; in [7] (Homo sapiens), 0.012 µM. The IC50 in [8] (Homo sapiens, 72 h) was 0.13 µM; in series [9] (Homo sapiens), 0.041 µM; in series [10] (Homo sapiens, HCT-15) it was 0.059 µM.
On to `O=C1c2cnncc2C(=O)c2[nH]nnc21` [Example 1b, 1H-[1,2,3]triazolo[4,5-g]phthalazin-4,9-dione], for which the IC50 is > 10 µM in series [2] (Homo sapiens); > 5 µM in [3] (Homo sapiens, HT-1080, 72 h); > 5 µM in series [4] (Homo sapiens, 72 h); 9.02 µM in [5] (Homo sapiens); > 5 µM in [6] (Homo sapiens, 72 h); 7.64 µM in series [7] (Homo sapiens). The half-inhibitory concentration (IC50) in series [8] (Homo sapiens, 72 h) was > 5 µM; in series [9] (Homo sapiens), > 10 µM; in series [10] (Homo sapiens, HCT-15), > 10 µM.
Consider `Cn1nnc2c1C(=O)c1cnncc1C2=O` [Example 2a, 1-methyl-1H-[1,2,3]triazolo[4,5-g]phthalazin-4,9-dione], for which the IC50 was 0.035 µM in [2] (Homo sapiens); 0.073 µM in series [3] (Homo sapiens, HT-1080, 72 h); 0.241 µM in series [4] (Homo sapiens, 72 h); 0.004 µM in [5] (Homo sapiens); 0.311 µM in [6] (Homo sapiens, 72 h); 0.003 µM in [7] (Homo sapiens). The IC50 in series [8] (Homo sapiens, 72 h) turned out to be 0.082 µM; in series [9] (Homo sapiens) it was 0.008 µM; in [10] (Homo sapiens, HCT-15) it was 0.103 µM.
Regarding `Cn1nc2c(n1)C(=O)c1cnncc1C2=O` [Example 2b, 2-methyl-2H-[1,2,3]triazolo[4,5-g]phthalazin-4,9-dione], the IC50 in series [2] (Homo sapiens) turned out to be 0.004 µM; in series [3] (Homo sapiens, HT-1080, 72 h) it was 0.0078 µM; in series [4] (Homo sapiens, 72 h) it was 0.054 µM; in series [5] (Homo sapiens), 0.002 µM; in [6] (Homo sapiens, 72 h) it was 0.132 µM; in series [7] (Homo sapiens) it was 0.0004 µM. The IC50 was 0.124 µM in [8] (Homo sapiens, 72 h); 0.002 µM in [9] (Homo sapiens); 0.02 µM in series [10] (Homo sapiens, HCT-15). For the same compound, the “cytotoxicity rank against XF498” value in [2] (setting [11]) is reported as “highest cytotoxicity”. For the same compound, the “cytotoxicity rank against HT1080” value in series [3] (setting [11]) is reported as “highest cytotoxicity”. For the same compound, the “cytotoxicity rank against A549” value in series [5] (setting [11]) is reported as “highest cytotoxicity”. In addition, the “cytotoxicity rank against SK-OV-3” value in series [7] (setting [11]) is recorded as “highest cytotoxicity”. Further, the “cytotoxicity rank against SK-MEL-2” value in [9] (setting [11]) was “highest cytotoxicity”.
For the compound `CCn1nnc2c1C(=O)c1cnncc1C2=O` [Example 3a, 1-ethyl-1H-[1,2,3]triazolo[4,5-g]phthalazin-4,9-dione], the IC50 in series [2] (Homo sapiens) turned out to be 0.034 µM; in series [3] (Homo sapiens, HT-1080, 72 h), 0.068 µM; in series [4] (Homo sapiens, 72 h), 0.126 µM; in series [5] (Homo sapiens), 0.006 µM; in series [6] (Homo sapiens, 72 h) it was 0.341 µM; in [7] (Homo sapiens), 0.003 µM. Besides, the IC50 in series [8] (Homo sapiens, 72 h) was found to be 0.056 µM; in [9] (Homo sapiens), 0.008 µM; in series [10] (Homo sapiens, HCT-15) it was 0.039 µM.
As to `CCn1nc2c(n1)C(=O)c1cnncc1C2=O` [Example 3b, 2-ethyl-2H-[1,2,3]triazolo[4,5-g]phthalazin-4,9-dione], the IC50 in [2] (Homo sapiens) came out at 0.017 µM; in series [3] (Homo sapiens, HT-1080, 72 h) it was 0.204 µM; in series [4] (Homo sapiens, 72 h) it was 0.046 µM; in [5] (Homo sapiens) it was 0.018 µM; in [6] (Homo sapiens, 72 h) it was 0.17 µM; in series [7] (Homo sapiens), 0.003 µM. In addition, the IC50 is 0.09 µM in series [8] (Homo sapiens, 72 h); 0.004 µM in series [9] (Homo sapiens); 0.018 µM in series [10] (Homo sapiens, HCT-15).
For the compound `CCCn1nnc2c1C(=O)c1cnncc1C2=O` [Example 4a, 1-n-propyl-1H-[1,2,3]triazolo[4,5-g]phthalazin-4,9-dione], the IC50 in [2] (Homo sapiens) worked out at 0.085 µM; in series [3] (Homo sapiens, HT-1080, 72 h), 0.075 µM; in [4] (Homo sapiens, 72 h), 0.212 µM; in [5] (Homo sapiens), 0.026 µM; in [6] (Homo sapiens, 72 h), 0.353 µM; in [7] (Homo sapiens) it was 0.014 µM. Moreover, the 50% inhibitory concentration (IC50) amounted to 0.083 µM in series [8] (Homo sapiens, 72 h); 0.02 µM in [9] (Homo sapiens); 0.176 µM in [10] (Homo sapiens, HCT-15).
Regarding `CCCn1nc2c(n1)C(=O)c1cnncc1C2=O` [Example 4b, 2-n-propyl-2H-[1,2,3]triazolo[4,5-g]phthalazin-4,9-dione], the IC50 came out at 0.018 µM in series [2] (Homo sapiens); 0.033 µM in [3] (Homo sapiens, HT-1080, 72 h); 0.043 µM in series [4] (Homo sapiens, 72 h); 0.019 µM in series [5] (Homo sapiens); 0.057 µM in series [6] (Homo sapiens, 72 h); 0.009 µM in [7] (Homo sapiens). Further, the IC50 was determined as 0.157 µM in series [8] (Homo sapiens, 72 h); 0.009 µM in [9] (Homo sapiens); 0.018 µM in series [10] (Homo sapiens, HCT-15).
For the compound `CCCCn1nnc2c1C(=O)c1cnncc1C2=O` [Example 5a, 1-n-butyl-1H-[1,2,3]triazolo[4,5-g]phthalazin-4,9-dione], the IC50 was determined as 0.181 µM in series [2] (Homo sapiens); 0.099 µM in series [3] (Homo sapiens, HT-1080, 72 h); 0.155 µM in [4] (Homo sapiens, 72 h); 0.081 µM in [5] (Homo sapiens); 0.421 µM in series [6] (Homo sapiens, 72 h); 0.021 µM in series [7] (Homo sapiens). The IC50 in series [8] (Homo sapiens, 72 h) is 0.089 µM; in series [9] (Homo sapiens), 0.023 µM; in series [10] (Homo sapiens, HCT-15) it was 0.177 µM.
For `CCCCn1nc2c(n1)C(=O)c1cnncc1C2=O` [Example 5b, 2-n-butyl-2H-[1,2,3]triazolo[4,5-g]phthalazin-4,9-dione], the IC50 in [2] (Homo sapiens) was determined as 0.019 µM; in [3] (Homo sapiens, HT-1080, 72 h), 0.03 µM; in series [4] (Homo sapiens, 72 h), 0.05 µM; in series [5] (Homo sapiens), 0.018 µM; in series [6] (Homo sapiens, 72 h) it was 0.066 µM; in series [7] (Homo sapiens), 0.017 µM. Also, the IC50 came out at 0.151 µM in [8] (Homo sapiens, 72 h); 0.015 µM in series [9] (Homo sapiens); 0.018 µM in [10] (Homo sapiens, HCT-15).
